Laboratory results from ChEMBL document CHEMBL5724914, “Linking interpersonal differences in gut microbiota composition and drug biotransformation activity” (2024).

Legend:
[1] = human gut metagenome, 24 h, 2 µM
[2] = (§1) The drug is tested on Z-027 corresponding to metagenome with ENA study accession number: PRJEB37062 and ENA sample accession number: ERS12561826 for biotransformation under anaerobic condition. The drug concentrations were measured over 9 timepoints collected between 0 and 24 hours of incubation by liquid-chromatography-coupled mass spectrometry (LC–MS); conditions: 2 µM
[3] = (§2) The drug is tested on Z-003 corresponding to pig gut metagenome with ENA study accession number: PRJEB37062 and ENA sample accession number: ERS12561803 for biotransformation under anaerobic condition. The drug concentrations were measured over 9 timepoints collected between 0 and 24 hours of incubation by liquid-chromatography-coupled mass spectrometry (LC–MS); conditions: 2 µM
[4] = human gut metagenome, 24 h, 2 µM; remark: listed apart in the source
[5] = as §2, with “WLS-240” for “Z-003”, “human” for “pig”, “ERS12561773” for “ERS12561803”; conditions: 2 µM
[6] = human gut metagenome, 24 h, 2 µM; remark: listed apart in the source
[7] = as §1, with “Z-026” for “Z-027”, “ERS12561825” for “ERS12561826”; conditions: 2 µM
[8] = as §1, with “Z-004” for “Z-027”, “ERS12561804” for “ERS12561826”; conditions: 2 µM
[9] = as §2, with “Z-013” for “Z-003”, “rabbit” for “pig”, “ERS12561813” for “ERS12561803”; conditions: 2 µM
[10] = human gut metagenome, 24 h, 2 µM; remark: listed apart in the source
[11] = as §2, with “WLS-370” for “Z-003”, “human” for “pig”, “ERS12561793” for “ERS12561803”; conditions: 2 µM
[12] = human gut metagenome, 24 h, 2 µM; remark: listed apart in the source
[13] = human gut metagenome, 24 h, 2 µM; remark: listed apart in the source
[14] = human gut metagenome, 24 h, 2 µM; remark: listed apart in the source
[15] = as §1, with “Z-010” for “Z-027”, “ERS12561810” for “ERS12561826”; conditions: 2 µM
[16] = human gut metagenome, 24 h, 2 µM; remark: listed apart in the source
[17] = as §2, with “WLS-350” for “Z-003”, “human” for “pig”, “ERS12561789” for “ERS12561803”; conditions: 2 µM
[18] = human gut metagenome, 24 h, 2 µM; remark: listed apart in the source
[19] = as §2, with “WLS-220” for “Z-003”, “human” for “pig”, “ERS12561769” for “ERS12561803”; conditions: 2 µM
[20] = as §2, with “Z-020” for “Z-003”, “rabbit” for “pig”, “ERS12561819” for “ERS12561803”; conditions: 2 µM
Also: call rule not given here.

Bacterial Biotransformation [1] | Bacterial Biotransformation [2] | Bacterial Biotransformation [3] | Bacterial Biotransformation [4] | Bacterial Biotransformation [5] | Bacterial Biotransformation [6] | Bacterial Biotransformation [7] | Bacterial Biotransformation [8] | Bacterial Biotransformation [9] | Bacterial Biotransformation [10] | Bacterial Biotransformation [11] | Bacterial Biotransformation [12] | Bacterial Biotransformation [13] | Bacterial Biotransformation [14] | Bacterial Biotransformation [15] | Bacterial Biotransformation [16] | Bacterial Biotransformation [17] | Bacterial Biotransformation [18] | Bacterial Biotransformation [19] | Bacterial Biotransformation [20] | Structure (SMILES)
Compound metabolized | Compound metabolized | Compound metabolized | Compound metabolized | Compound metabolized | Compound metabolized | Compound metabolized | Compound metabolized | Compound metabolized | Compound metabolized | Compound metabolized | Compound metabolized | Compound metabolized | Compound metabolized | Compound metabolized | Compound metabolized | Compound metabolized | Compound metabolized | Compound metabolized | Compound metabolized | CC(=O)Nc1ccc(OC(C)=O)cc1 [DIACETAMATE]
Compound metabolized | Compound NOT metabolized | Compound NOT metabolized | Compound metabolized | Compound NOT metabolized | Compound NOT metabolized | Compound NOT metabolized | Compound NOT metabolized | Compound NOT metabolized | Compound metabolized | Compound NOT metabolized | Compound NOT metabolized | Compound metabolized | Compound metabolized | Compound metabolized | Compound metabolized | Compound NOT metabolized | Compound metabolized | Compound NOT metabolized | Compound NOT metabolized | CCN(CC)CCOC(=O)C1(C2CCCCC2)CCCCC1 [DICYCLOMINE]
Compound metabolized | Compound NOT metabolized | Compound metabolized | Compound metabolized | Compound metabolized | Compound metabolized | Compound NOT metabolized | Compound metabolized | Compound NOT metabolized | Compound NOT metabolized | Compound metabolized | Compound NOT metabolized | Compound metabolized | Compound metabolized | Compound metabolized | Compound NOT metabolized | Compound metabolized | Compound metabolized | Compound metabolized | Compound metabolized | COc1ccc([C@@H]2Sc3ccccc3N(CCN(C)C)C(=O)[C@@H]2OC(C)=O)cc1 [DILTIAZEM]
Compound metabolized | Compound metabolized | Compound metabolized | Compound metabolized | Compound metabolized | Compound metabolized | Compound metabolized | Compound NOT metabolized | Compound NOT metabolized | Compound NOT metabolized | Compound metabolized | Compound NOT metabolized | Compound metabolized | Compound NOT metabolized | Compound metabolized | Compound NOT metabolized | Compound metabolized | Compound NOT metabolized | Compound metabolized | Compound NOT metabolized | OCCN(CCO)c1nc(N2CCCCC2)c2nc(N(CCO)CCO)nc(N3CCCCC3)c2n1 [DIPYRIDAMOLE]
Compound NOT metabolized | Compound NOT metabolized | Compound NOT metabolized | Compound metabolized | Compound NOT metabolized | Compound NOT metabolized | Compound NOT metabolized | Compound NOT metabolized | Compound NOT metabolized | Compound NOT metabolized | Compound NOT metabolized | Compound NOT metabolized | Compound NOT metabolized | Compound NOT metabolized | Compound NOT metabolized | Compound NOT metabolized | Compound NOT metabolized | Compound NOT metabolized | Compound NOT metabolized | Compound NOT metabolized | CCOc1ccc2nc(S(N)(=O)=O)sc2c1 [ETHOXZOLAMIDE]

Structure (SMILES) | Bacterial Biotransformation [1] | Bacterial Biotransformation [2] | Bacterial Biotransformation [3] | Bacterial Biotransformation [4] | Bacterial Biotransformation [5] | Bacterial Biotransformation [6] | Bacterial Biotransformation [7] | Bacterial Biotransformation [8] | Bacterial Biotransformation [9] | Bacterial Biotransformation [10] | Bacterial Biotransformation [11] | Bacterial Biotransformation [12] | Bacterial Biotransformation [13] | Bacterial Biotransformation [14] | Bacterial Biotransformation [15] | Bacterial Biotransformation [16] | Bacterial Biotransformation [17] | Bacterial Biotransformation [18] | Bacterial Biotransformation [19] | Bacterial Biotransformation [20]
COc1cc2nc(N3CCN(C(=O)C4COc5ccccc5O4)CC3)nc(N)c2cc1OC.CS(=O)(=O)O (stereo not given) [DOXAZOSIN MESYLATE] | Compound metabolized | Compound NOT metabolized | Compound NOT metabolized | Compound metabolized | Compound metabolized | Compound NOT metabolized | Compound metabolized | Compound NOT metabolized | Compound metabolized | Compound metabolized | Compound metabolized | Compound metabolized | Compound metabolized | Compound NOT metabolized | Compound metabolized | Compound metabolized | Compound metabolized | Compound metabolized | Compound metabolized | Compound NOT metabolized
CN(C)CCOC(C)(c1ccccc1)c1ccccn1.O=C(O)CCC(=O)O (stereo not given) [DOXYLAMINE SUCCINATE] | Compound NOT metabolized | Compound NOT metabolized | Compound NOT metabolized | Compound NOT metabolized | Compound NOT metabolized | Compound NOT metabolized | Compound NOT metabolized | Compound NOT metabolized | Compound NOT metabolized | Compound NOT metabolized | Compound NOT metabolized | Compound NOT metabolized | Compound NOT metabolized | Compound NOT metabolized | Compound NOT metabolized | Compound NOT metabolized | Compound NOT metabolized | Compound NOT metabolized | Compound NOT metabolized | Compound NOT metabolized
Br.CN1CCC[C@@H]1Cc1c[nH]c2ccc(CCS(=O)(=O)c3ccccc3)cc12 [ELETRIPTAN HYDROBROMIDE] | Compound metabolized | Compound NOT metabolized | Compound NOT metabolized | Compound metabolized | Compound metabolized | Compound NOT metabolized | Compound NOT metabolized | Compound NOT metabolized | Compound NOT metabolized | Compound NOT metabolized | Compound NOT metabolized | Compound metabolized | Compound metabolized | Compound NOT metabolized | Compound NOT metabolized | Compound NOT metabolized | Compound NOT metabolized | Compound metabolized | Compound metabolized | Compound NOT metabolized
